{"source": "paper PMC7686313", "about": "“Phase 1 study of mTORC1/2 inhibitor sapanisertib (TAK-228) in advanced solid tumours, with an expansion phase in renal, endometrial or bladder cancer” (British Journal of Cancer, 2020)", "experiment": "Safety (adverse events, NCI CTCAE v4.0), expansion phase", "settings": "expansion QD 5 mg", "description": "Based on data collected during dose-escalation, the expansion phase evaluated the safety and efficacy of QD and QW sapanisertib in patients with RCC, endometrial or bladder cancer. Patients could continue receiving sapanisertib for ≤1 year (or beyond, if the investigator and sponsor agreed) in the absence of disease progression or unacceptable toxicity.\nPatients who received ≥1 dose of sapanisertib were included in the safety population. The response-evaluable population included patients who received ≥1 dose of sapanisertib, had measurable disease at baseline, and had ≥1 postbaseline assessment. […] Adverse events (AEs) were assessed using the National Cancer Institute Common Terminology Criteria for Adverse Events, v4.0. Patients were provided with a home blood-glucose meter to monitor their fasting predose blood-glucose measurements to assess hyperglycaemia as an on-target AE and PD marker."}
{"smiles": "CC(C)n1nc(-c2ccc3oc(N)nc3c2)c2c(N)ncnc21", "note": "[Sapanisertib]", "values": [{"measurement": "Abdominal pain, all-grade AE of any cause", "result": "7 (18) n (%)"}, {"measurement": "Abdominal pain, grade ≥3 AE of any cause", "result": "3 (8) n (%)"}, {"measurement": "Acute kidney injury, grade ≥3 AE of any cause", "result": "2 (5) n (%)"}, {"measurement": "Acute kidney injury, treatment-related AE", "result": "2 (5) n (%)"}, {"measurement": "Anaemia, all-grade AE of any cause", "result": "6 (15) n (%)"}, {"measurement": "Anaemia, grade ≥3 AE of any cause", "result": "1 (3) n (%)"}, {"measurement": "Anaemia, treatment-related AE", "result": "2 (5) n (%)"}, {"measurement": "Any AE", "result": "39 (100) n (%)"}, {"measurement": "Any AE resulting in dose modification/interruption", "result": "27 (69) n (%)"}, {"measurement": "Any AE resulting in treatment discontinuation", "result": "7 (18) n (%)"}, {"measurement": "Any SAE", "result": "19 (49) n (%)"}, {"measurement": "Any grade ≥3 AE", "result": "30 (77) n (%)"}, {"measurement": "Any treatment-related AE", "result": "39 (100) n (%)"}, {"measurement": "Any treatment-related SAE", "result": "5 (13) n (%)"}, {"measurement": "Any treatment-related grade ≥3 AE", "result": "18 (46) n (%)"}, {"measurement": "Arthralgia, all-grade AE of any cause", "result": "2 (5) n (%)"}, {"measurement": "Asthenia, grade ≥3 AE of any cause", "result": "1 (3) n (%)"}, {"measurement": "Asthenia, treatment-related AE", "result": "7 (18) n (%)"}, {"measurement": "Asthenia, treatment-related grade ≥3 AE", "result": "1 (3) n (%)"}, {"measurement": "Blood creatinine increased, all-grade AE of any cause", "result": "5 (13) n (%)"}, {"measurement": "Blood creatinine increased, treatment-related AE", "result": "3 (8) n (%)"}, {"measurement": "Constipation, all-grade AE of any cause", "result": "10 (26) n (%)"}, {"measurement": "Constipation, grade ≥3 AE of any cause", "result": "0 (0) n (%)"}, {"measurement": "Cough, all-grade AE of any cause", "result": "9 (23) n (%)"}, {"measurement": "Decreased appetite, all-grade AE of any cause", "result": "20 (51) n (%)"}, {"measurement": "Decreased appetite, treatment-related AE", "result": "17 (44) n (%)"}, {"measurement": "Dehydration, all-grade AE of any cause", "result": "6 (15) n (%)"}, {"measurement": "Dehydration, grade ≥3 AE of any cause", "result": "0 (0) n (%)"}, {"measurement": "Dehydration, treatment-related AE", "result": "2 (5) n (%)"}, {"measurement": "Dehydration, treatment-related grade ≥3 AE", "result": "0 (0) n (%)"}, {"measurement": "Depression, all-grade AE of any cause", "result": "1 (3) n (%)"}, {"measurement": "Diarrhoea, all-grade AE of any cause", "result": "20 (51) n (%)"}, {"measurement": "Diarrhoea, grade ≥3 AE of any cause", "result": "2 (5) n (%)"}, {"measurement": "Diarrhoea, treatment-related AE", "result": "17 (44) n (%)"}, {"measurement": "Diarrhoea, treatment-related grade ≥3 AE", "result": "2 (5) n (%)"}, {"measurement": "Dizziness, all-grade AE of any cause", "result": "9 (23) n (%)"}, {"measurement": "Dry mouth, all-grade AE of any cause", "result": "5 (13) n (%)"}, {"measurement": "Dry mouth, treatment-related AE", "result": "3 (8) n (%)"}, {"measurement": "Dysgeusia, all-grade AE of any cause", "result": "10 (26) n (%)"}, {"measurement": "Dysgeusia, treatment-related AE", "result": "10 (26) n (%)"}, {"measurement": "Dyspepsia, treatment-related AE", "result": "1 (3) n (%)"}, {"measurement": "Dyspnoea, grade ≥3 AE of any cause", "result": "2 (5) n (%)"}, {"measurement": "Fatigue, all-grade AE of any cause", "result": "25 (64) n (%)"}, {"measurement": "Fatigue, grade ≥3 AE of any cause", "result": "5 (13) n (%)"}, {"measurement": "Fatigue, treatment-related AE", "result": "22 (56) n (%)"}, {"measurement": "Fatigue, treatment-related grade ≥3 AE", "result": "4 (10) n (%)"}, {"measurement": "Haematuria, grade ≥3 AE of any cause", "result": "2 (5) n (%)"}, {"measurement": "Headache, all-grade AE of any cause", "result": "4 (10) n (%)"}, {"measurement": "Headache, treatment-related AE", "result": "0 (0) n (%)"}, {"measurement": "Hypercholesterolemia, treatment-related AE", "result": "0 (0) n (%)"}, {"measurement": "Hyperglycaemia, all-grade AE of any cause", "result": "18 (46) n (%)"}, {"measurement": "Hyperglycaemia, grade ≥3 AE of any cause", "result": "5 (13) n (%)"}, {"measurement": "Hyperglycaemia, treatment-related AE", "result": "17 (44) n (%)"}, {"measurement": "Hyperglycaemia, treatment-related grade ≥3 AE", "result": "5 (13) n (%)"}, {"measurement": "Hyperkalaemia, grade ≥3 AE of any cause", "result": "2 (5) n (%)"}, {"measurement": "Hypertension, grade ≥3 AE of any cause", "result": "1 (3) n (%)"}, {"measurement": "Hypokalaemia, grade ≥3 AE of any cause", "result": "1 (3) n (%)"}, {"measurement": "Hyponatremia, grade ≥3 AE of any cause", "result": "1 (3) n (%)"}, {"measurement": "Hypophosphatemia, grade ≥3 AE of any cause", "result": "4 (10) n (%)"}, {"measurement": "Hypophosphatemia, treatment-related AE", "result": "3 (8) n (%)"}, {"measurement": "Hypophosphatemia, treatment-related grade ≥3 AE", "result": "3 (8) n (%)"}, {"measurement": "Lymphopenia, grade ≥3 AE of any cause", "result": "1 (3) n (%)"}, {"measurement": "Lymphopenia, treatment-related grade ≥3 AE", "result": "0 (0) n (%)"}, {"measurement": "Musculoskeletal chest pain, grade ≥3 AE of any cause", "result": "1 (3) n (%)"}, {"measurement": "Nausea, all-grade AE of any cause", "result": "21 (54) n (%)"}, {"measurement": "Nausea, grade ≥3 AE of any cause", "result": "1 (3) n (%)"}, {"measurement": "Nausea, treatment-related AE", "result": "20 (51) n (%)"}, {"measurement": "Nausea, treatment-related grade ≥3 AE", "result": "1 (3) n (%)"}, {"measurement": "Oedema peripheral, all-grade AE of any cause", "result": "9 (23) n (%)"}, {"measurement": "On-study deaths", "result": "0 n (%)"}, {"measurement": "Oropharyngeal pain, all-grade AE of any cause", "result": "3 (8) n (%)"}, {"measurement": "Pain in extremity, grade ≥3 AE of any cause", "result": "0 (0) n (%)"}, {"measurement": "Pneumonia, grade ≥3 AE of any cause", "result": "2 (5) n (%)"}, {"measurement": "Pruritus generalised, all-grade AE of any cause", "result": "12 (31) n (%)"}, {"measurement": "Pruritus generalised, treatment-related AE", "result": "11 (28) n (%)"}, {"measurement": "Pruritus generalised, treatment-related grade ≥3 AE", "result": "1 (3) n (%)"}, {"measurement": "Pruritus, all-grade AE of any cause", "result": "10 (26) n (%)"}, {"measurement": "Pruritus, treatment-related AE", "result": "7 (18) n (%)"}, {"measurement": "Pyrexia, all-grade AE of any cause", "result": "8 (21) n (%)"}, {"measurement": "Rash maculo-papular, all-grade AE of any cause", "result": "17 (44) n (%)"}, {"measurement": "Rash maculo-papular, grade ≥3 AE of any cause", "result": "3 (8) n (%)"}, {"measurement": "Rash maculo-papular, treatment-related AE", "result": "14 (36) n (%)"}, {"measurement": "Rash maculo-papular, treatment-related grade ≥3 AE", "result": "3 (8) n (%)"}, {"measurement": "Rash, treatment-related AE", "result": "1 (3) n (%)"}, {"measurement": "Rash, treatment-related grade ≥3 AE", "result": "0 (0) n (%)"}, {"measurement": "Sepsis, grade ≥3 AE of any cause", "result": "1 (3) n (%)"}, {"measurement": "Stomatitis (includes oropharyngeal pain and mucosal inflammation), treatment-related AE", "result": "19 (49) n (%)"}, {"measurement": "Stomatitis, all-grade AE of any cause", "result": "19 (49) n (%)"}, {"measurement": "Stomatitis, grade ≥3 AE of any cause", "result": "3 (8) n (%)"}, {"measurement": "Stomatitis, treatment-related grade ≥3 AE", "result": "3 (8) n (%)"}, {"measurement": "Thrombocytopenia, grade ≥3 AE of any cause", "result": "2 (5) n (%)"}, {"measurement": "Thrombocytopenia, treatment-related grade ≥3 AE", "result": "2 (5) n (%)"}, {"measurement": "Transitional cell carcinoma, grade ≥3 AE of any cause", "result": "0 (0) n (%)"}, {"measurement": "Urinary tract infection, all-grade AE of any cause", "result": "6 (15) n (%)"}, {"measurement": "Vomiting, all-grade AE of any cause", "result": "13 (33) n (%)"}, {"measurement": "Vomiting, grade ≥3 AE of any cause", "result": "1 (3) n (%)"}, {"measurement": "Vomiting, treatment-related AE", "result": "12 (31) n (%)"}, {"measurement": "Weight decreased, all-grade AE of any cause", "result": "6 (15) n (%)"}, {"measurement": "Weight decreased, treatment-related AE", "result": "5 (13) n (%)"}]}
